Source: patent US9029377B2, “Platelet-activating factor receptor antagonists” (Merck Sharp & Dohme Corp., priority 2009, dated 2015)

biological target: PAFR (Homo sapiens, UniProt P25105); experiment: PAF Binding Assay (PAFR binding)
Sequence (P25105 whole entry): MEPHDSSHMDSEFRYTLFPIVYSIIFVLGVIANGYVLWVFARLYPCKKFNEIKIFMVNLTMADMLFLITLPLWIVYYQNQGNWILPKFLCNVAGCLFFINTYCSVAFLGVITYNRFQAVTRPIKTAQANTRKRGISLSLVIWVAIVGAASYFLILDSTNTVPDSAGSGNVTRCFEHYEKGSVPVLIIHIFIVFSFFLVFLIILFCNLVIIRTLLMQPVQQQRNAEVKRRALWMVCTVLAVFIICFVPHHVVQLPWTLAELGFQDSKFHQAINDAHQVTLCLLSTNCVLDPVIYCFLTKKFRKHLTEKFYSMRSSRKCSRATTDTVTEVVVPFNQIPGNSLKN

Molecule	IC50 [nM]
CCc1cc(-c2ncns2)ccc1S(=O)(=O)N[C@H]1CCC[C@@H](n2cnnc2)C1 [Compound 2Aaz, 2-ethyl-4-(1,2,4-thiadiazol-5-yl)-N-[(1S,3R)-3-(4H-1,2,4-triazol-4-yl)cyclohexyl]benzenesulfonamide]	390
3-ethyl-5-imidazo[1,2-a]pyridin-8-yl-N-[(1S,3R)-3-(4H-1,2,4-triazol-4-yl)cyclohexyl]-5-(trifluoromethyl)benzenesulfonamide [Compound 3Bau]	0.8
CCc1cc(-c2ccc(OCC(F)(F)F)nc2)ccc1S(=O)(=O)N[C@@H]1C[C@H](n2cnnc2)CC(F)(F)C1 [Compound 2Cak, N-[(1R,5S)-3,3-difluoro-5-(4H-1,2,4-triazol-4-yl)cyclohexyl]-2-ethyl-4-[6-(2,2,2-trifluoroethoxy)pyridin-3-yl]benzenesulfonamide]	3.1
O=S(=O)(N[C@H]1CCC[C@@H](n2cnnc2)C1)c1cc(-c2cc(Cl)cn3ccnc23)cc(C(F)(F)F)c1 [Compound 3Aat, 3-(6-chloroimidazo[1,2-a]pyridin-8-yl)-N-[(1S,3R)-3-(4H-1,2,4-triazol-4-yl)cyclohexyl]-5-(trifluoromethyl)benzenesulfonamide]	2.7
CCc1cc(-c2cncs2)ccc1S(=O)(=O)N[C@H]1CCC[C@@H](n2cnnc2)C1 [Compound 2Aax, 2-ethyl-4-(1,3-thiazol-5-yl)-N-[(1S,3R)-3-(4H-1,2,4-triazol-4-yl)cyclohexyl]benzenesulfonamide]	203
CCc1cc(-c2ccc(OC(C(F)(F)F)C(F)(F)F)cc2)ccc1S(=O)(=O)N[C@H]1CCC[C@@H](n2cnnc2)C1 [Compound 2Aap, 3-ethyl-N-[(1S,3R)-3-(4H-1,2,4-triazol-4-yl)cyclohexyl]-4′-[2,2,2-trifluoro-1-(trifluoromethyl)ethoxy]biphenyl-4-sulfonamide]	1.7
CCc1cc(-c2ccc(OC(F)(F)F)cc2)ccc1S(=O)(=O)N[C@H]1CCC[C@@H](n2cnnc2C)C1 [Compound 2Abd, 3-ethyl-N-[(1S,3R)-3-(3-methyl-4H-1,2,4-triazol-4-yl)cyclohexyl]-4′-(trifluoromethoxy)biphenyl-4-sulfonamide]	2.2
CCc1cc(-c2cccc3cccnc23)ccc1S(=O)(=O)N[C@H]1CCC[C@@H](n2cnnc2)C1 [Compound 2Aae, 2-ethyl-4-quinolin-8-yl-N-[(1S,3R)-3-(4H-1,2,4-triazol-4-yl)cyclohexyl]benzenesulfonamide]	4.9
CCc1cc(-c2ccc(OC(C)C)nc2)ccc1S(=O)(=O)N[C@H]1CCC[C@@H](n2cnnc2)C1 [Compound 2Aai, 2-ethyl-4-(6-isopropoxypyridin-3-yl)-N-[(1S,3R)-3-(4H-1,2,4-triazol-4-yl)cyclohexyl]benzenesulfonamide]	1.8
CCc1cc(-c2nccs2)ccc1S(=O)(=O)N[C@H]1CCC[C@@H](n2cnnc2)C1 [Compound 2Aaw, 2-ethyl-4-(1,3-thiazol-2-yl)-N-[(1S,3R)-3-(4H-1,2,4-triazol-4-yl)cyclohexyl]benzenesulfonamide]	45
CCc1cc(-c2ccc(OC(F)(F)F)c(F)c2)ccc1S(=O)(=O)N[C@H]1CCC[C@@H](n2cnnc2C)C1 [Compound 2Abf, 3-ethyl-3′-fluoro-N-[(1S,3R)-3-(3-methyl-4H-1,2,4-triazol-4-yl)cyclohexyl]-4′-(trifluoromethoxy)biphenyl-4-sulfonamide]	2.7
CCc1cc(OCCC(F)(F)F)ccc1S(=O)(=O)N[C@H]1CCC[C@@H](n2cnnc2)C1 [Compound 2Abk, 2-ethyl-N-[(1S,3R)-3-(4H-1,2,4-triazol-4-yl)cyclohexyl]-4-(3,3,3-trifluoropropoxy)benzenesulfonamide]	22
CCc1cc(-c2cccnc2OCC(F)(F)F)cc(S(=O)(=O)N[C@H]2CCC[C@@H](n3cnnc3)C2)c1 [Compound 3Bam, 3-ethyl-N-[(1S,3R)-3-(4H-1,2,4-triazol-4-yl)cyclohexyl]-5-[2-(2,2,2-trifluoroethoxy)pyridin-3-yl]benzenesulfonamide]	9.5
3-bromo-N-[(1S,3R)-3-(4H-1,2,4-triazol-4-yl)cyclohexyl]-5-(trifluoromethyl)benzenesulfonamide [Compound 3b]	0.9
4′-(difluoromethoxy)-N-[(1R,5S)-3,3-difluoro-5-(4H-1,2,4-triazol-4-yl)cyclohexyl]-2-ethylbenzenesulfonamide [Compound 2Caf]	12

Further lines, results first:

IC50 [nM]	Molecule
4	O=S(=O)(N[C@H]1CCC[C@@H](n2cnnc2)C1)c1ccc(-c2ccc(OCC(F)(F)F)nc2)cc1F [Compound 2Ih, 2-fluoro-N-[(1S,3R)-3-(4H-1,2,4-triazol-4-yl)cyclohexyl]-4-[6-(2,2,2-trifluoroethoxy)pyridin-3-yl]benzenesulfonamide]
1.4	Cc1nncn1[C@H]1C[C@@H](NS(=O)(=O)c2ccc(-c3ccc(OC(F)(F)F)cc3)c(F)c2)CC(F)(F)C1 [Compound 2Ha, N-[(1R,5S)-3,3-difluoro-5-(3-methyl-4H-1,2,4-triazol-4-yl)cyclohexyl]-2-fluoro-4′-(trifluoromethoxy)biphenyl-4-sulfonamide]
570	CCc1cc(-c2ccc(C#N)nc2)ccc1S(=O)(=O)N[C@H]1CCC[C@@H](n2cnnc2)C1 [Compound 2Ah, 4-(6-cyanopyridin-3-yl)-2-ethyl-N-[(1S,3R)-3-(4H-1,2,4-triazol-4-yl)cyclohexyl]benzenesulfonamide]
27	CCc1cc(-c2ccc(OC)cc2)ccc1S(=O)(=O)N[C@H]1CCC[C@@H](n2cnnc2)C1 [Compound 2Ap, 3-ethyl-4′-methoxy-N-[(1S,3R)-3-(4H-1,2,4-triazol-4-yl)cyclohexyl]biphenyl-4-sulfonamide]
28	Cc1nncn1[C@@H]1CCC[C@H](NS(=O)(=O)c2ccc(C(C)C)cc2)C1 [Compound 2Nq, 4-isopropyl-N-[(1S,3R)-3-(3-methyl-4H-1,2,4-triazol-4-yl)cyclohexyl]benzenesulfonamide]
15	CC(C)Oc1ccc(-c2ccc(S(=O)(=O)N[C@H]3CCC[C@@H](n4cnnc4)C3)cc2F)cc1 [Compound 2Ed, 2-fluoro-4′-isopropoxy-N-[(1S,3R)-3-(4H-1,2,4-triazol-4-yl)cyclohexyl]biphenyl-4-sulfonamide]
0.9	CCc1cc(-c2cccc3cccnc23)cc(S(=O)(=O)N[C@H]2CCC[C@@H](n3cnnc3)C2)c1 [Compound 3Bd, 3-ethyl-5-quinolin-8-yl-N-[(1S,3R)-3-(4H-1,2,4-triazol-4-yl)cyclohexyl]benzenesulfonamide]
526	O=S(=O)(N[C@H]1CCC[C@@H](n2cnnc2)C1)c1cc(-c2ccc(O)nc2)cc(C(F)(F)F)c1 [Compound 3Ai, 3-(6-hydroxypyridin-3-yl)-N-[(1S,3R)-3-(4H-1,2,4-triazol-4-yl)cyclohexyl]-5-(trifluoromethyl)benzenesulfonamide]
56	Cc1nncn1[C@@H]1CCC[C@H](NS(=O)(=O)c2ccc(-n3nccc3C3CC3)cc2)C1 [Compound 2Nr, 4-(5-cyclopropyl-1H-pyrazol-1-yl)-N-[(1S,3R)-3-(3-methyl-4H-1,2,4-triazol-4-yl)cyclohexyl]benzenesulfonamide]
25	CC(C)Oc1ccc(S(=O)(=O)N[C@H]2CCC[C@@H](n3cnnc3)C2)cc1 [Compound 2Mz, 4-isopropoxy-N-[(1S,3R)-3-(4H-1,2,4-triazol-4-yl)cyclohexyl]benzenesulfonamide]
2.6	O=S(=O)(N[C@H]1CCC[C@@H](n2cnnc2)C1)c1c(F)cc(-c2noc(C3CCC3)n2)cc1C1CC1 [Compound 2Sb, 4-(5-cyclobutyl-1,2,4-oxadiazol-3-yl)-2-cyclopropyl-6-fluoro-N-[(1S,3R)-3-(4H-1,2,4-triazol-4-yl)cyclohexyl]benzenesulfonamide]
4.6	O=S(=O)(N[C@H]1CCC[C@@H](n2cnnc2)C1)c1cc(-c2cccc(F)n2)cc(C(F)(F)F)c1 [Compound 3Ax, 3-(6-fluoropyridin-2-yl)-N-[(1S,3R)-3-(4H-1,2,4-triazol-4-yl)cyclohexyl]-5-(trifluoromethyl)benzenesulfonamide]
10	O=S(=O)(N[C@H]1CCC[C@@H](n2cnnc2)C1)c1cc(OC(F)(F)F)cc(-c2ccccc2)c1 [Compound 3Ea, N-[(1S,3R)-3-(4H-1,2,4-triazol-4-yl)cyclohexyl]-5-(trifluoromethoxy)biphenyl-3-sulfonamide]
15	O=S(=O)(N[C@H]1CCC[C@@H](n2cnnc2)C1)c1cc(-c2ccnc(F)c2)cc(C(F)(F)F)c1 [Compound 3Av, 3-(2-fluoropyridin-4-yl)-N-[(1S,3R)-3-(4H-1,2,4-triazol-4-yl)cyclohexyl]-5-(trifluoromethyl)benzenesulfonamide]
16	CCc1cc(-c2ccc(F)cc2F)ccc1S(=O)(=O)N[C@H]1CCC[C@@H](n2cnnc2)C1 [Compound 2Av, 3-ethyl-2′,4′-difluoro-N-[(1S,3R)-3-(4H-1,2,4-triazol-4-yl)cyclohexyl]biphenyl-4-sulfonamide]
27	CCc1cc(-c2cccnc2OC)ccc1S(=O)(=O)N[C@H]1CCC[C@@H](n2cnnc2)C1 [Compound 2Aq, 2-ethyl-4-(2-methoxypyridin-3-yl)-N-[(1S,3R)-3-(4H-1,2,4-triazol-4-yl)cyclohexyl]benzenesulfonamide]
0.1	O=S(=O)(N[C@H]1CCC[C@@H](n2cnnc2)C1)c1c(C2CC2)cc(-c2noc(C3CCC3)n2)cc1C1CC1 [Compound 2Rb, 4-(5-cyclobutyl-1,2,4-oxadiazol-3-yl)-2,6-dicyclopropyl-N-[(1S,3R)-3-(4H-1,2,4-triazol-4-yl)cyclohexyl]benzenesulfonamide]
16	CCc1cc(-c2ccccc2OC)ccc1S(=O)(=O)N[C@H]1CCC[C@@H](n2cnnc2)C1 [Compound 2As, 3-ethyl-2′-methoxy-N-[(1S,3R)-3-(4H-1,2,4-triazol-4-yl)cyclohexyl]biphenyl-4-sulfonamide]
4.8	Cc1nncn1[C@@H]1CCC[C@H](NS(=O)(=O)c2cc(-c3ccc(F)cc3)cc(C(F)(F)F)c2)C1 [Compound 3Ab, 4′-fluoro-N-[(1S,3R)-3-(3-methyl-4H-1,2,4-triazol-4-yl)cyclohexyl]-5-(trifluoromethyl)biphenyl-3-sulfonamide]
